Source: patent US20020165133A1 (priority 2001, published 2002)
Entries after “also recorded” stand apart in the source; their conditions may differ.

Tested on: C57BL/6 mice
Experiment: Test of hair regrowth effects on the shaved backs of C57BL/6 mice
Format: in vivo
Details: C57BL/6 mice (female), applied over hair removed area once a day for 30 days, 100 μl (0.05% w/v)
Text: C57BL/6 mice (female), 42˜49 days old, were used in this test.
The mice were removed of hair on their backs using an electric shaver, and weighed. The mice were divided into several groups with weights equally distributed. […] The degree of hair growth were judged by naked eye and the back sides of the mice were photographed.

[Leu^4]cyclosporin A [M21]
hair growth effect (degree of hair growth judged by naked eye): no significant effect; also recorded: no hair growth effect
